From ChEMBL document CHEMBL1201862, “PubChem BioAssay data set” (2004)
Calls of active or inactive are those of the source.

Legend:
[1] = HeLa cell cytotoxicity, dose response, cytotoxicity control for MgcRacGAP inhibitor project (AID 624300); format: functional
[2] = biological target: T1, Rac GTPase-activating protein 1 (Homo sapiens, UniProt Q9H0H5); experiment: MgcRacGAP GTPase-activating activity inhibitors, confirmation, biochemical, ADP Hunter fluorescence, primary and confirmatory (AID 624330); format: functional
T1 sequence (Q9H0H5 whole entry): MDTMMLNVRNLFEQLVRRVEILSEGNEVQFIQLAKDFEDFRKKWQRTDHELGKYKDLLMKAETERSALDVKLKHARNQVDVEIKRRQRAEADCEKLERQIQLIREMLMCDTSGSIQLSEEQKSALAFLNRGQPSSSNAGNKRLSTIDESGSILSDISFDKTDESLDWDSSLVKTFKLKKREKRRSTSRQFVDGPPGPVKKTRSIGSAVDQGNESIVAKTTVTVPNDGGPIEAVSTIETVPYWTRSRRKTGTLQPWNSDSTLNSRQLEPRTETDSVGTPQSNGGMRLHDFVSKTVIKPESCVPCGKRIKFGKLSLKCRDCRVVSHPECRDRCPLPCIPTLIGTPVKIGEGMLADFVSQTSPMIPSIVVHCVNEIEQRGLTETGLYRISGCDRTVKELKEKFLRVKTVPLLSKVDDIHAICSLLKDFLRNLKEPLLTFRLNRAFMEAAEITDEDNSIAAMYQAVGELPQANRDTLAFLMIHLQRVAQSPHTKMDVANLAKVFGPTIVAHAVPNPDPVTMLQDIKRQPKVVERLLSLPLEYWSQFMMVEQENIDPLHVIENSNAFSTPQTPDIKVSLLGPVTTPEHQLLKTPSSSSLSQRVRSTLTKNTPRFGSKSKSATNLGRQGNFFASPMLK

[3] = system: Streptococcus; experiment: Group A Streptococcus viability loss, dose response, counter-screen for streptokinase expression inhibitor project, luminescence, BacTiterGlo (AID 1915); format: functional, organism-based;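 note: potency for reduction of bacterial viability or growth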
[4] = biological target: T2, Sentrin-specific protease 6 (Homo sapiens, UniProt Q9GZR1); format: functional;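 note: Luminescence-based dose-response confirmatory assay of SENP6 inhibition, following up an ultra-high-throughput screen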
T2 sequence (Q9GZR1 whole entry): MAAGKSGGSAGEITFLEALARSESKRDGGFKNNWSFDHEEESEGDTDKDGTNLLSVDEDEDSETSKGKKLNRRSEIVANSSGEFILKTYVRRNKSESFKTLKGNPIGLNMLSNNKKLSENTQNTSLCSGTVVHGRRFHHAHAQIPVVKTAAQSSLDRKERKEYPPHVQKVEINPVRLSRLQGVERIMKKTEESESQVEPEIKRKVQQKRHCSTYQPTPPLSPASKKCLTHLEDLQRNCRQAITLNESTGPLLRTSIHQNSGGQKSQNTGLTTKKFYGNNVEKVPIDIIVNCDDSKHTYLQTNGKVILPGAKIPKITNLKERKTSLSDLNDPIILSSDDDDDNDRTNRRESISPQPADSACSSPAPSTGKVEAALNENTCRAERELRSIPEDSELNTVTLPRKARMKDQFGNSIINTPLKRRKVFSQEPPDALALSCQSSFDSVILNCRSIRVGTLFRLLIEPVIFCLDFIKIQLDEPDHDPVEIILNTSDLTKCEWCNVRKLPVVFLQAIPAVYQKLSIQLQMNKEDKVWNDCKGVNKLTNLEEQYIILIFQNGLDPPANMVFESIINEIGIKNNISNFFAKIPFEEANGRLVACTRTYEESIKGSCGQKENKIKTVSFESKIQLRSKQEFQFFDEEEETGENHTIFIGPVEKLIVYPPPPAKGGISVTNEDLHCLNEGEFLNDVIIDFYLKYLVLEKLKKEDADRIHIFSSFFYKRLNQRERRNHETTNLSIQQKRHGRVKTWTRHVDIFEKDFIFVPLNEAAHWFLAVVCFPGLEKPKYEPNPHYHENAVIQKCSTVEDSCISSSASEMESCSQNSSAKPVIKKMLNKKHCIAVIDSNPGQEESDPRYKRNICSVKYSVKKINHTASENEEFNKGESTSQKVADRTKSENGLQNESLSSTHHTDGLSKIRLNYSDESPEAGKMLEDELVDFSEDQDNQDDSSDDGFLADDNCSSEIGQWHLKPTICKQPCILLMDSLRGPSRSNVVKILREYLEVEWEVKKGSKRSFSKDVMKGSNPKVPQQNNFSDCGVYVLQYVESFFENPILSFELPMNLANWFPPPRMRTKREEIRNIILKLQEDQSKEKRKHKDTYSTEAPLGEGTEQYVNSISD

[5] = biological target: T3, Streptokinase A (Streptococcus pyogenes serotype M1, UniProt P10520); experiment: S. pyogenes streptokinase expression inhibitors, potency, dose response, plasminogen activation absorbance, OD405 (AID 1914); format: functional, Streptococcus pyogenes M1 GAS;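 note: secreted streptokinase activity via plasminogen activation per viability signal from cell pellet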
T3 sequence (P10520 whole entry): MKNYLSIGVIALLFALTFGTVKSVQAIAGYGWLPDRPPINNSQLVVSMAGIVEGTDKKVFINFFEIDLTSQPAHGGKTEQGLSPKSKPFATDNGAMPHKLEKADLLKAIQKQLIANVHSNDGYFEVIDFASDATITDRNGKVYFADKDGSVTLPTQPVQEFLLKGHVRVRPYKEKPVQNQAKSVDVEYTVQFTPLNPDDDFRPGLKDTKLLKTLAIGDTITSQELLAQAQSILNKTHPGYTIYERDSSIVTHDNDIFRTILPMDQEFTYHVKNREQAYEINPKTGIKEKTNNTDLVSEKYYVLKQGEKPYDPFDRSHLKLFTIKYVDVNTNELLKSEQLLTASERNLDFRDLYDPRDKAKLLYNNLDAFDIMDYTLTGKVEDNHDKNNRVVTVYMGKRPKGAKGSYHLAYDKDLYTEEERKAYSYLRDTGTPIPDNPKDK

[6] = system: Streptococcus sp. 'group A'; experiment: growth inhibition of control SK(-) GAS strain, dose response, counter-screen for streptokinase expression inhibitor project, luminescence, kanamycin, BacTiterGlo, confirmation (AID 1900); format: functional, organism-based
[7] = biological target: T4, Sentrin-specific protease 8 (Homo sapiens, UniProt Q96LD8); format: functional;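 note: luminescence read-out of SENP8 inhibition, dose-response confirmation following an ultra-high-throughput screen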
T4 sequence (Q96LD8 whole entry): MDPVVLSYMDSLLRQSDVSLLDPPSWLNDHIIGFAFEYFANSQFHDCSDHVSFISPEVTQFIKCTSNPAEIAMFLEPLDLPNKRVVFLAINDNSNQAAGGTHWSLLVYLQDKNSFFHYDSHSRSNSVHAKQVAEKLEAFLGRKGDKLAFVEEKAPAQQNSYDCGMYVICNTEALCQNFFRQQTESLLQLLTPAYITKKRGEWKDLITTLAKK

[8] = biological target: T5, Caspase-3 (Homo sapiens, UniProt P42574); format: functional;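 note: Dose-response selectivity test against caspase-3 for candidate inhibitors of sentrin-specific proteases (SENPs)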
T5 sequence (P42574 whole entry): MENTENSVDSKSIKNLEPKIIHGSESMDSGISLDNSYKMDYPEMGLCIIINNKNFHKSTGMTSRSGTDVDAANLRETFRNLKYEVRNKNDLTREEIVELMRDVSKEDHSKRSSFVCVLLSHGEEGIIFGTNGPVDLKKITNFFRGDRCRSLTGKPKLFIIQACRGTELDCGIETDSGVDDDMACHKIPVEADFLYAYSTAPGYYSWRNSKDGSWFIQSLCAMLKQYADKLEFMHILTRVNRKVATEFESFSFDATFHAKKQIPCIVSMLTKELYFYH

[9] = biological target: T6, Sentrin-specific protease 7 (Homo sapiens, UniProt Q9BQF6); format: functional;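 note: Luminescence-based dose-response confirmation of ultra-high-throughput screening hits, measuring inhibition of SENP7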
T6 sequence (Q9BQF6 whole entry): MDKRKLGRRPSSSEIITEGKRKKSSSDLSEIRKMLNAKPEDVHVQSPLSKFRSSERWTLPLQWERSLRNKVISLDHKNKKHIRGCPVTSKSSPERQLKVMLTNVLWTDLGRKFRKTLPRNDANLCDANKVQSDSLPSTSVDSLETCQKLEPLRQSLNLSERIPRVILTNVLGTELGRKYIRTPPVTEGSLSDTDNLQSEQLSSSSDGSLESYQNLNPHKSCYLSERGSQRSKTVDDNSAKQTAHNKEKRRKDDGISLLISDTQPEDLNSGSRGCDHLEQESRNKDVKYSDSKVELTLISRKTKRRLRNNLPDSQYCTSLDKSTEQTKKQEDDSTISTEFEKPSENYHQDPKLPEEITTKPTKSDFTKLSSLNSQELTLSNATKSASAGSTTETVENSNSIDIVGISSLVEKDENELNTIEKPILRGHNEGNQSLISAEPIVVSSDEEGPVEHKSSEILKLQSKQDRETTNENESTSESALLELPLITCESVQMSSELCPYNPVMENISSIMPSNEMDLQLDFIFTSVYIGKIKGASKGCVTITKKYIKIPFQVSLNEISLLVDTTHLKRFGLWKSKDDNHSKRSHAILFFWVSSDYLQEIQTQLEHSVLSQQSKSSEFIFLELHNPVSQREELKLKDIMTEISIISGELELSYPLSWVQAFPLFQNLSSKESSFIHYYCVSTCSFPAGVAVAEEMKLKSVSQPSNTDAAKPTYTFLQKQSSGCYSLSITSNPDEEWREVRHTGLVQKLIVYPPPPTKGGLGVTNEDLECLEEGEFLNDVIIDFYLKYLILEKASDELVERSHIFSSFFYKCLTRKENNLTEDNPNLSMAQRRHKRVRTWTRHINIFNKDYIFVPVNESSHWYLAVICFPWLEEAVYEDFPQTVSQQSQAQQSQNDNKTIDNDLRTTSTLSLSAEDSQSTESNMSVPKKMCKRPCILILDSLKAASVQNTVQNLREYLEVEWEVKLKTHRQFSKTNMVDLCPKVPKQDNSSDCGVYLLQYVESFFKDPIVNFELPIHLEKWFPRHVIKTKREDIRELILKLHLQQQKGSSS

[10] = cells
[11] = HEp-2 cell cytotoxicity, dose response, cytotoxicity control for RSV inhibitor project, HTS (AID 2410); format: functional; settings: human respiratory syncytial virus
[12] = inhibitors of HIV Env-driven cell fusion, dose response, cherry-pick (AID 652057); format: functional, cell-based
[13] = off-target signal loss in HeLa-CEM21 co-culture – HeLa F-luc CTL cells, cherry-picked, counter-screen for HIV-1 Env fusion inhibitor project, dose response (AID 652040); format: functional, cell-based;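 note: potency for signal decrease marking cytotoxic or nonspecific inhibition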
[14] = inhibitors of clade B AD8 Env fusion, dose response, cell-based, cherry-pick (AID 652062); format: functional;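 note: luciferase signal from cell-cell fusion driven by HIV-1 clade B AD8 Env; potency is for inhibitors of fusion seen as a drop in luminescence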
[15] = ZM109 Env clade C HIV-1 fusion inhibitors, dose response, HeLa effector, CEM target cells, luciferase, cherry-pick (AID 652058); format: functional, cell-based
[16] = biological target: Paired box protein Pax-8 (Homo sapiens, UniProt Q06710); experiment: inhibitors of PAX8-driven TPO luciferase reporter, dose response, RMG-I cells, cherry-pick (AID 687027); format: functional, cell-based;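 note: luciferase reporter driven by Pax8 target thyroperoxidase promoter measured by SteadyGlo luminescence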
Sequence of Paired box protein Pax-8 (Q06710 whole entry): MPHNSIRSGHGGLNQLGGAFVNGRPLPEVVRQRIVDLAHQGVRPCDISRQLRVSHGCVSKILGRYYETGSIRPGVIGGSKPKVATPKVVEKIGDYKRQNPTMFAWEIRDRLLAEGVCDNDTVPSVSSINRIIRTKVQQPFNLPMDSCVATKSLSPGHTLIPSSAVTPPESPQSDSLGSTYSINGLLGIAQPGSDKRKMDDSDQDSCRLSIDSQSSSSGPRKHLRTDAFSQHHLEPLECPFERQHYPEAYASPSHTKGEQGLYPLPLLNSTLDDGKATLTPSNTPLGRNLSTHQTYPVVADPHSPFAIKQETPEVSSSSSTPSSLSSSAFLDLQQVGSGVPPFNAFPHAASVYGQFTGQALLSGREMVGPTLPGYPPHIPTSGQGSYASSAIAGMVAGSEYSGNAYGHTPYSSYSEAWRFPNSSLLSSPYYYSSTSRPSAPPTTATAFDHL

[17] = system: H4; experiment: Luminescence Cell-Based Dose Response HTS to Identify Activators of 5'UTR Stem-Loop Driven Prion Protein mRNA Translation in H4 Neuroglioblastoma Cells. [Related pubchem assays: 1829 (Project Summary), 1814 (Primary HTS)]; format: functional; settings: Homo sapiens
[18] = Luminescence Cell-Based Dose Response HTS to Identify Activators of Luciferase Translation or Activity in H4 […] Cells. [Related pubchem assays: 1829 (Project Summary), 1814 (Primary HTS)]; format: functional
[19] = Luminescence Cell-Based Dose Confirmation HTS to Identify Activators of 5'UTR Stem-Loop Driven Alpha-Synuclein mRNA Translation in H4 Neuroglioblastoma Cells. [Related pubchem assays: 1829 (Project Summary), 1814 (Primary HTS)]; format: functional
[20] = T. cruzi growth inhibition in host cells, dose response, cell-based, plate reader, dry powder, set 2 (AID 652275); format: functional

## COc1cc(C(C[N+](=O)[O-])c2c(N)n(C)c(=O)n(C)c2=O)ccc1O (stereo not drawn)
[1]
  CC50: 80.4 µM (active)
[2]
  IC50: 111 µM (active)

## CCn1c(SCc2ccccc2Cl)nc2ccccc21
[3]
  EC50: > 150 µM (not active)
[4]
  IC50: 17.5 µM (active)
[5]
  EC50: 21.4 µM (active)
[6]
  EC50: 16.5 µM (active)
[7]
  IC50: 29.3 µM (active)
[8]
  IC50: 40.6 µM (active)
[9]
  IC50: 11.3 µM (active)

## CCOC(=O)Cc1c(C)c2c(O)cc(O)cc2oc1=O
[10]
  IC50: 15.1 µM (active)
[11]
  CC50: 47.7 µM (active)

## COc1ccc(NC(=O)Nc2ccc3c(c2)N(C)C(=O)CS3)cc1Cl
[12]
  AC50: 31.1 µM (active)
[13]
  AC50: > 70 µM (inactive)
[14]
  AC50: 11.8 µM (active)
[15]
  AC50: 3.37 µM (active)

## CCOc1ccc(-c2cc(C(=O)O)c3ccccc3n2)c(OCC)c1
[10]
  IC50: 19.7 µM (active)
[11]
  CC50: 42 µM (active)

## Cc1ccc2c(c1)c1c3n2CCN(CC(N)=O)C3CCC1 (stereo not drawn)
[13]
  AC50: 7.87 µM (active)
[16]
  AC50: 6.82 µM (active)

## COc1cc(-c2ncc3ccccn23)cc(OC)c1OC
[1]
  CC50: 100 µM (active)
[2]
  IC50: 123 µM (active)

## Cc1cccc(C(=N)NOC(=O)N2c3ccccc3Sc3ccccc32)c1
[17]
  EC50: > 120 µM (not active)
[1]
  CC50: 92.6 µM (active)
[18]
  EC50: > 120 µM (not active)
[19]
  EC50: > 120 µM (not active)

## Cc1ccccc1S(=O)(=O)N1C[C@H]2[C@H]3C(=O)N(C4CCCCC4)C(=O)[C@H]3CC(=O)[C@H]2[C@@H]1c1ccc(Cl)cc1
[12]
  AC50: 0.396 µM (active)
[13]
  AC50: 1.2 µM (active)
[14]
  AC50: 2.81 µM (active)
[15]
  AC50: 0.874 µM (active)

## COc1ccc(S(=O)(=O)N(C)C[C@H]2OCCCC[C@H](C)Oc3ccc(N(C)C)cc3C(=O)N([C@H](C)CO)C[C@@H]2C)cc1
[20]
  AC50: 9.32 µM (active)

## CN(C[C@H](Cc1ccccc1)N(C[C@H](Cc1ccccc1)N(CC1(c2ccccc2)CC1)N=O)N=O)N=O
[12]
  AC50: 2.98 µM (active)
[13]
  AC50: 3.05 µM (active)
[14]
  AC50: 7.28 µM (active)
[15]
  AC50: 3.53 µM (active)

## Cc1ccccc1CN(C)C[C@H]1Oc2c(NC(=O)c3ccncc3)cccc2C(=O)N([C@@H](C)CO)C[C@@H]1C
[20]
  AC50: 0.0559 µM (active)

## CC(C)N1C[C@@H](CN(C)Cc2ccc(Cl)cc2)Oc2c(NC(=O)c3ccncc3)cc(F)cc2C1=O
[20]
  AC50: 0.00326 µM (active)

## CN(C)CC#Cc1cccc(-c2nc(C(=O)N3CCN(Cc4ccccc4)CC3)cc3c2[C@H](CCO)N([S+]([O-])C(C)(C)C)C3)c1 (stereo partly drawn)
[20]
  AC50: 6.1 µM (active)

## COc1ccc2nc(/C=N/NC(=O)[C@H](C)NC(=O)OC(C)(C)C)ccc2c1
[10]
  IC50: 31.9 µM (active)
